Source: publication PMC7151078, “A Novel NMDA Receptor Antagonist Protects against Cognitive Decline Presented by Senescent Mice” (Pharmaceutics, 2020)

Experiments:
SAMR1 and SAMP8 mice [1] = assay: Hippocampal gene expression by real-time qPCR; format: in vivo, mouse; settings: hippocampus
Procedure: Male SAMR1 and SAMP8 mice (n = 41) with 20-weeks-old were used to carry out cognitive and molecular analysis. The animals were randomly divided into four groups: SAMR1 control (SR1 Ct) group (n = 11), SAMP8 control (SP8 Ct) group (n = 8), SAMR1 treated with RL-208 (SR1 RL-208 (5 mg/Kg)) group (n = 10) and SAMP8 treated with RL-208 (SP8 RL-208 (5 mg/Kg)) group (n = 12). Animals had free access to food and water, under standard temperature conditions (22±2 °C) and 12h:12h light-dark cycles (300 lux/0 lux). RL-208, (3,4,8,9-tetramethyltetracyclo[4.4.0.0^3,9.0^4,8]dec-1-yl)-methylamine hydrochloride, (5 mg/kg/day) was administered through drinking water for four weeks before starting the cognitive test. RL-208 was administered up to euthanasia (Figure 1A). Water consumption was controlled each week for each cage and strain. Afterwards, RL-208 concentration was adjusted accordingly to reach the optimal dose for each cage. Total RNA isolation from hippocampal samples was carried out using TRIsure^TM reagent following the manufacturer’s instructions (Bioline, Meridian Bioscience Inc., UK). The yield, purity, and quality of RNA were determined spectrophotometrically with a NanoDrop^TM ND-1000 (Thermo Scientific, Wilmington, DE, USA) apparatus and an Agilent 2100B Bioanalyzer (Agilent Technologies, Palo Alto, CA, USA). RNAs with 260/280 ratios and RIN higher than 1.9 and 7.5, respectively, were selected. Reverse transcription-polymerase chain reaction (RT-PCR) was performed as follows: 2 μg of messenger RNA (mRNA) was reverse-transcribed using the High Capacity cDNA Reverse Transcription kit (Applied Biosystems, Foster City, CA, USA). Real-time quantitative PCR (qPCR) was used to quantify the mRNA expression of OS and synaptic plasticity genes listed in Table S2. SYBR® Green real-time PCR was performed on a Step One Plus Detection System (Applied-Biosystems, Foster City, CA, USA) employing SYBR® Green PCR Master Mix (Applied-Biosystems, Foster City, CA, USA). Each reaction mixture contained 6.75 μL of complementary DNA (cDNA) (which concentration was 2 μg), 0.75 μL of each primer (which concentration was 100 nM), and 6.75 μL of SYBR® Green PCR Master Mix (2X). Data were analyzed utilizing the comparative cycle threshold (Ct) method (ΔΔCt), where the housekeeping gene level was used to normalize differences in sample loading and preparation. Normalization of expression levels was performed with β-actin for SYBR® Green-based real-time PCR results. Each sample was analyzed in duplicate, and the results represent the n-fold difference of the transcript levels among different groups.

SAMR1 and SAMP8 mice [2] = assay: Novel object recognition test (NORT); format: in vivo, mouse; settings: 5 mg/kg/day
Procedure: Male SAMR1 and SAMP8 mice (n = 41) with 20-weeks-old were used to carry out cognitive and molecular analysis. The animals were randomly divided into four groups: SAMR1 control (SR1 Ct) group (n = 11), SAMP8 control (SP8 Ct) group (n = 8), SAMR1 treated with RL-208 (SR1 RL-208 (5 mg/Kg)) group (n = 10) and SAMP8 treated with RL-208 (SP8 RL-208 (5 mg/Kg)) group (n = 12). Animals had free access to food and water, under standard temperature conditions (22±2 °C) and 12h:12h light-dark cycles (300 lux/0 lux). RL-208, (3,4,8,9-tetramethyltetracyclo[4.4.0.0^3,9.0^4,8]dec-1-yl)-methylamine hydrochloride, (5 mg/kg/day) was administered through drinking water for four weeks before starting the cognitive test. RL-208 was administered up to euthanasia (Figure 1A). Water consumption was controlled each week for each cage and strain. Afterwards, RL-208 concentration was adjusted accordingly to reach the optimal dose for each cage. The novel object recognition test (NORT) allows evaluating short- and long-term recognition memory involving cortical areas and the hippocampus. The experimental apparatus used for this test was a 90º, two-arm, 25-cm-long, 20-cm-high, and a 5-cm-wide black maze of black polyvinyl chloride (Figure 1D). The walls could be removed for easy cleaning with 70% ethanol to eliminate olfactory cues, and light intensity in mid-field was 30 lux. The objects to be discriminated were made of plastic and chosen not to frighten mice and without any part likely to be bitten. Before performing the test, the mice were individually habituated to the apparatus for 10 min during 3 consecutive days. On day four the next day, the animals were allowed to explore freely a 10 min acquisition trial (First trial), during which they were placed in the maze in the presence of two identical novel objects (A+A’ or B+B’) at the end of each arm. The mouse was then removed from the apparatus and returned to its home cage. A 10 min retention trial (Second trial) was carried out two hours later. […] The time that mice explored the novel object (TN) and time that mice explored the old object (TO) were measured from the video recordings from each trial session Exploration of an object was defined as pointing the nose towards the object at a distance ≤2 cms and/or touching it with the nose. […] To avoid object preference biases objects A and B were counterbalanced so that one-half of the animals in each experimental group were first exposed to object A and then to object B, whereas the other half first saw object B and then object A. To evaluate the cognitive performance, the discrimination index (DI) was calculated, which is defined as (TN-TO)/(TN+TO).

CC12CC3CC1(C)C1(C)CC3(CN)CC21C.Cl [RL-208, (3,4,8,9-tetramethyltetracyclo [4.4.0.0^3,9.0^4,8]dec-1-yl)methylamine hydrochloride] was tested, and the Tgf gene expression (SAMR1 and SAMP8 mice [1]; RL-208 treated mice groups vs control groups) was “significant gain”, the Vgf gene expression (SAMR1 and SAMP8 mice [1]; SP8 RL-208 vs SP8 Ct) was “significant increase” and the Vgf gene expression (SAMR1 and SAMP8 mice [1]; between SR1 mice groups) was “no changes”. The Cox2 gene expression (SAMR1 and SAMP8 mice [1]; treated groups vs controls, significant in the SP8 strain) was “decreased”, the Hmox1 gene expression (SAMR1 and SAMP8 mice [1]; treated mice) was “elevated” and the “NORT short-term recognition memory (DI)” value (SAMR1 and SAMP8 mice [2]; SP8 RL-208 vs SP8 Ct, 2 h retention) was “significant gain”. The “NORT long-term recognition memory (DI)” value (SAMR1 and SAMP8 mice [2]; SP8 RL-208 vs SP8 Ct, 24 h retention) was “significant gain”, the “NORT long-term DI” value (SAMR1 and SAMP8 mice [2]; between SR1 groups) was “no significant changes” and the “NORT short-term DI” value (SAMR1 and SAMP8 mice [2]; between SR1 groups) was “no significant changes”.
